The record followed here is US9738648B2, “Pyridines, pyrimidines, and pyrazines, as BTK inhibitors and uses thereof” (Merck Patent GmbH, priority 2013, dated 2017).

Broadly, the IC50 is the concentration needed to halve the response being measured.

For this test, the target named is T1, full-length human BTK (Homo sapiens, UniProt Q06187).
T1 construct: 2.5× stocks of full-length human BTK (08-080) from CarnaBio USA, Inc; purchased CarnaBio USA, Inc., Natick, Mass; 08-080
The test can be described thus: BTK IC50 Enzyme Assay (Assay A), microfluidic off-chip mobility shift kinase assay. Conditions: kinKDR peptide substrate, 90 min at 27° C. The class given is biochemical. The procedure:
BTK IC50 Enzyme Assay (Assay A)
The following describes a microfluidic, off-chip mobility shift kinase assay used to measure inherent potency of compounds against BTK enzyme.
2.5× stocks of full-length human BTK (08-080) from CarnaBio USA, Inc., Natick, Mass., 1.6×ATP and appropriate kinKDR peptide substrate (FITC-AHA-EEPLYWSFPAKKK10 NH2) were prepared in kinase reaction buffer consisting of 25 mM MgCl2, 0.015% Brij-35 (30%), 100 mM Hepes, pH 7.5, and 10 mM DTT.
5 uL of enzyme buffer and 7.5 uL of ATP/kinKDR peptide substrate mix were added to Matrix (#115304) 384-well, sterile, polypropylene plates (Thermo Fisher Scientific, 15 Hudson, N.H.) with 125 nL of serially diluted compounds prepared in 100% DMSO, and incubated for 90 min. at 27° C. Following the incubation period, reactions were stopped by adding 60 uL stop buffer consisting of 100 mM Hepes, pH 7.5, 0.015% Brij-35 (30%), 0.277% Coating Reagent #3 (Caliper Life Sciences, Mountain View, Calif.), 5% DMSO. Stopped reactions were monitored at −2 PSI, −3000 V/−700 V in a LabChip 3000 plate 20 reader from Caliper Life Sciences, a PerkinElmer Company (Hopkinton, Mass.), and the activity was measured by off-chip mobility shift assay measuring the charge/mass difference between substrate and product resulting from peptide phosphorilation. IC50 and efficacy were determined by plotting log [Inhibitor] vs. % Activity in GeneData Screener (Basel, Switzerland).

T1 sequence (Q06187 whole entry): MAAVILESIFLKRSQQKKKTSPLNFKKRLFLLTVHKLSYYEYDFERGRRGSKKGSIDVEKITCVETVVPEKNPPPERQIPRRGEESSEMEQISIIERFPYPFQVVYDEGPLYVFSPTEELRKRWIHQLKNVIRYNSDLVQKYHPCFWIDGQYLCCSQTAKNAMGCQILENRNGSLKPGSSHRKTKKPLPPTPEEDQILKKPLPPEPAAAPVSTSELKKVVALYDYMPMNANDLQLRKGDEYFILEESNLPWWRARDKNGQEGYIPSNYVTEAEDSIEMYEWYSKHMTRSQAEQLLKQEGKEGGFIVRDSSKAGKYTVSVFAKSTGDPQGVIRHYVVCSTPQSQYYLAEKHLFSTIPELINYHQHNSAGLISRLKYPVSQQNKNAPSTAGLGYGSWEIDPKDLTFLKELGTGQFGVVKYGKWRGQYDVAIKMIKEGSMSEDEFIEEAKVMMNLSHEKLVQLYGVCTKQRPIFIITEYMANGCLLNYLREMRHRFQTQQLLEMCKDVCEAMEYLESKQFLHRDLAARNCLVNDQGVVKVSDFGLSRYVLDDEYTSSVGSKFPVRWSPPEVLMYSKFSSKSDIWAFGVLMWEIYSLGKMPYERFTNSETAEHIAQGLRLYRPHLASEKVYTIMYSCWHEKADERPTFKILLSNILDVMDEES

`CN(C)C/C=C/C(=O)N1CCC(n2ccc3ncnc(Oc4ccc(Oc5ccccc5)cc4)c32)CC1` [Compound 1, (E)-4-(dimethylamino)-1-(4-(4-(4-phenoxyphenoxy)-5H-pyrrolo[3,2-d]pyrimidin-5-yl)piperidin-1-yl)but-2-en-1-one]: the IC50 was less than 100 nM. On to `C=CC(=O)N1CCC(n2ccc3ncnc(Oc4ccc(Oc5ccccc5)cc4)c32)CC1` [Compound 2, 1-(4-(4-(4-phenoxyphenoxy)-5H-pyrrolo[3,2-d]pyrimidin-5-yl)piperidin-1-yl)prop-2-en-1-one], for which the IC50 is less than 100 nM. On to `C=CC(=O)N1CC(n2ccc3ncc(-c4ccc(Oc5ccccc5)cc4)cc32)C1` [Compound 4, 1-(3-(6-(4-phenoxyphenyl)-1H-pyrrolo[3,2-b]pyridin-1-yl)azetidin-1-yl)prop-2-en-1-one], for which the IC50 is less than 100 nM.

On to `C=CC(=O)N1CC[C@H](n2ccc3ncnc(Oc4ccc(Oc5ccccc5)cc4)c32)C1` [Compound 5, (S)-1-(3-(4-(4-phenoxyphenoxy)-5H-pyrrolo[3,2-d]pyrimidin-5-yl)pyrrolidin-1-yl)prop-2-en-1-one], for which the IC50 was less than 100 nM. Turning to `C=CC(=O)N1CC(n2ccc3ncnc(Nc4ccc(Oc5ccccc5)cc4)c32)C1` [Compound 6, 1-(3-(4-((4-phenoxyphenyl)amino)-5H-pyrrolo[3,2-d]pyrimidin-5-yl)azetidin-1-yl)prop-2-en-1-one], the IC50 is less than 100 nM.

On to `C=CC(=O)N1CC(n2ccc3ncc(-c4ccc(Oc5ccccc5)cc4)nc32)C1` [Compound 7, 1-(3-(3-(4-phenoxyphenyl)-5H-pyrrolo[2,3-b]pyrazin-5-yl)azetidin-1-yl)prop-2-en-1-one], for which the IC50 is less than 100 nM. Consider `C=CC(=O)N[C@H]1C[C@H](n2ccc3ncnc(Oc4ccc(Oc5ccccc5)cc4)c32)C1` [Compound 8, N-(trans-3-(4-(4-phenoxyphenoxy)-5H-pyrrolo[3,2-d]pyrimidin-5-yl)cyclobutyl)acrylamide], for which the IC50 is less than 100 nM. To `C=CC(=O)N1CC[C@@H]1Cn1ccc2ncnc(Oc3ccc(Oc4ccccc4)cc3)c21` [Compound 9, (R)-1-(2-((4-(4-phenoxyphenoxy)-5H-pyrrolo[3,2-d]pyrimidin-5-yl)methyl)azetidin-1-yl)prop-2-en-1-one] belongs less than 100 nM; to `C=CC(=O)N[C@H]1C[C@@H](n2ncc3ncnc(Oc4ccc(Oc5ccccc5)cc4)c32)C1` [Compound 11, N-((1s,3s)-3-(7-(4-phenoxyphenoxy)-1H-pyrazolo[4,3-d]pyrimidin-1-yl)cyclobutyl)acrylamide], less than 100 nM; to `C=CC(=O)N1CCC(n2ncc3ncnc(Oc4ccc(Oc5ccccc5)cc4)c32)CC1` [Compound 12, 1-(4-(7-(4-phenoxyphenoxy)-1H-pyrazolo[4,3-d]pyrimidin-1-yl)piperidin-1-yl)prop-2-en-1-one], less than 100 nM. In the case of `CN(C)C/C=C/C(=O)N1CCC(n2ncc3ncnc(Oc4ccc(Oc5ccccc5)cc4)c32)CC1` [Compound 14, (E)-4-(dimethylamino)-1-(4-(7-(4-phenoxyphenoxy)-1H-pyrazolo[4,3-d]pyrimidin-1-yl)piperidin-1-yl)but-2-en-1-one], the IC50 was less than 100 nM. To `C=CC(=O)N1CCCC(Cn2ccc3ncnc(Oc4ccc(Oc5ccccc5)cc4)c32)C1` (centres unmarked) [Compound 15, 1-(3-((4-(4-phenoxyphenoxy)-5H-pyrrolo[3,2-d]pyrimidin-5-yl)methyl)piperidin-1-yl)prop-2-en-1-one] belongs less than 100 nM.

For `C=CC(=O)N1CC(n2ccc3ncnc(Oc4ccc(OCc5ccccc5)cc4)c32)C1` [Compound 16, 1-(3-(4-(4-(benzyloxy)phenoxy)-5H-pyrrolo[3,2-d]pyrimidin-5-yl)azetidin-1-yl)prop-2-en-1-one], the IC50 was less than 100 nM. Take `C=CC(=O)N1CC(n2ccc3ncnc(Oc4ccc(Cc5ccccc5)cc4)c32)C1` [Compound 17, 1-(3-(4-(4-benzylphenoxy)-5H-pyrrolo[3,2-d]pyrimidin-5-yl)azetidin-1-yl)prop-2-en-1-one]: the IC50 is less than 100 nM.
